Results reported in patent publication US20150337315A1, “COMPOSITIONS AND METHODS TARGETING SIGNALING BY THE G PROTEIN BETA-GAMMA SUBUNIT FOR THE TREATMENT OF ASTHMA” (priority 2014, published 2015).
Entries after “also recorded” stand apart in the source; their conditions may differ.

How the values were obtained:
[1] = test system: co-localization of p-Src with immunoprecipitated Gβ; assay: Co-IP of p-Src with immunoprecipitated Gβ in IL-13-treated normal HASM cells; assay type: cell-based, human; conditions: IL-13 × 60 min
Description: (§1) Levels of total and phosphorylated c-Src at residue Tyr416 and ERK1/2 proteins, as well as Gβ protein, were detected by Western blot analysis of lysates isolated from normal and asthmatic HASM cells before and at various times after treatment either with 1 μM of anti-Gβγ blocking peptide or gallein, or the c-Src family tyrosine kinase-selective inhibitor, SU6656 (10 μM), or exposure to the pro-asthmatic Th2 cytokine, IL-13 (50 ng/ml), as described. Following protein extraction and addition of gel loading buffer, the cellular extracts were loaded on a 10% SDS-PAGE gel for immunoblotting after transfer to a PVDF membrane. […] Protein levels were detected by ECL after a 1-hr incubation with a 1:2,000 dilution of HRP-conjugated secondary antibody, followed by exposure to autoradiography film. The protein band intensities were quantified by densitometry.
(§2) Normal and asthmatic HASM cells were prepared for co-immunoprecipitation (Co-IP) studies, performed as previously described, under native conditions in order to preserve protein-protein associations. […] The precipitated immunocomplexes were subsequently analyzed by immunoblotting using either anti-Gβ, anti-phospho-c-Src^Tyr416, anti-ERK1/2, or anti-PDE4D rabbit polyclonal antibody, or anti-Rap1GAP rabbit monoclonal IgG antibody (Millipore; Billerica, Mass.).

free Gβ protein levels = assay: Immunoblot of free Gβ protein in IL-13-treated normal HASM cells; assay type: cell-based, human; conditions: IL-13 50 ng/ml, 50 μg/ml printed
Description: (§3) Levels of total and phosphorylated c-Src at residue Tyr416 and ERK1/2 proteins, as well as Gβ protein, were detected by Western blot analysis of lysates isolated from normal and asthmatic HASM cells before and at various times after treatment either with 1 μM of anti-Gβγ blocking peptide or gallein, or the c-Src family tyrosine kinase-selective inhibitor, SU6656 (10 μM), or exposure to the pro-asthmatic Th2 cytokine, IL-13 (50 ng/ml), as described. Following protein extraction and addition of gel loading buffer, the cellular extracts were loaded on a 10% SDS-PAGE gel for immunoblotting after transfer to a PVDF membrane. The membranes were then incubated overnight with monoclonal mouse anti-human primary antibodies directed against c-Src, phospho-c-Src^Tyr416, ERK1/2 and phospho-ERK1/2 (Millipore; Billerica, Mass.), and a rabbit anti-human polyclonal antibody directed against the Gβ subunit (Millipore; Billerica, Mass.). Protein levels were detected by ECL after a 1-hr incubation with a 1:2,000 dilution of HRP-conjugated secondary antibody, followed by exposure to autoradiography film. The protein band intensities were quantified by densitometry.

[2] = test system: PDE activity in asthmatic HASM cells; assay: cAMP PDE activity assay in lysates of treated or siRNA-transfected asthmatic HASM cells; assay type: cell-based, human; conditions: for effect on heightened basal PDE activity: × 2 hr
Description: Primary cultures of HASM cells derived from bronchial smooth muscle freshly isolated post-mortem from normal non-asthmatic (n=3) and asthmatic (n=4) donor lungs were purchased at passage 2-3 from Lonza Walkersville, Inc. Other than data regarding age, race, and gender of the donors provided in Table 1, limited information was available with respect to clinical severity of asthma, treatment history, or cause of death, with exception to asthma donor #1. All the experiments were conducted at passage 5-6, after growing the cells in Lonza's serum-containing SmBM medium supplemented with the BulletKit medium that contains insulin, human FGF, gentamycin/amphotericin B. The cells were maintained throughout in a humidified incubator containing 5% CO2 in air at 37° C. and, after attaining ˜90% confluence, cells were growth arrested for 24 hr in serum-free Ham's F12 medium. Thereafter, the cells were examined for constitutive and induced changes in PDE activity, levels of free Gβ, c-Src and ERK1/2 phosphorylation, and PDE4D protein expression, all in the absence and presence of different pretreatment conditions, as described.
Levels of total cAMP PDE activity were determined in normal and asthmatic HASM cells at baseline and at different times ranging from 0.25-24 hr following administration of a maximally effective concentration of either: 1) a cell permeable anti-Gβγ blocking peptide (1 μM; AnaSpec; Premont, Calif.), comprised of a membrane permeable sequence (MPS; 15 amino acids) conjugated to the Gβγ-sequestering C-terminal domain (28 amino acids) of phosducin-like protein [28]; 2) the inert MPS peptide alone (1 μM) serving as a negative-control; or 3) 1 μM of gallein [29], a recently described small molecule inhibitor of Gβγ signaling (Acros Organics). PDE activity was also assayed in normal and asthmatic HASM cells following dose-dependent administration of anti-Gβγ blocking peptide (0.01-10 μM), and following treatment with various small molecule inhibitors, as described. The PDE activity assay was performed in the HASM cell lysates using a colorimetric, non-radioactive enzymatic assay (Enzo Life Sciences; Plymouth Meeting, Pa.) as per the manufacturer's protocol, with some modification of our previously described approach. Specifically, to maximize the sensitivity and yield of the measurement enzyme activity, we used materials including a cell lysis buffer completely free of phosphate, composed of 50 mM Tris, pH 7.5, 0.1 mM EDTA, 0.1 mM EGTA, 1 mM DTT and 0.2% NP-40. The measured levels of PDE activity were standardized to protein content in the cell extracts. Finally, PDE activity was also assayed in normal and asthmatic HASM cells following transfection with siRNA preparations targeted at suppressing specific signaling molecules, as described below.
Targeted protein suppression using siRNA preparations was examined in normal and asthmatic HASM cells that were initially seeded into 6-well plates and, at ˜40% confluency, the medium was replaced with the reduced serum-containing medium, Opti-MEM (Invitrogen). Cells were then transfected twice during a 24-hr interval with pools of siRNA preparations, each pool comprised of three siRNA duplexes targeted against either human Rap1GAP (Ambion; ID: s11785, s11786, s11787), RGS14, (Ambion; ID: 18059, 18147, 135857), or the PKAα catalytic subunit (Santa Cruz Biotechnology; Pool ID: sc-36240), as well as a non-targeted (scrambled) siRNA duplex serving as a negative control. As previously described [16.17.31], the transfections were carried out using Oligofectamine (Invitrogen) as the transfection agent, and the pools of siRNAs were applied to each well at a final concentration of 100 nM for each siRNA preparation.

[3] = test system: co-localization of Gβ with immunoprecipitated Gα; assay: Western blot / Co-IP of free Gβ and Gα-associated Gβ in asthmatic HASM cells; assay type: cell-based, human; conditions: 1 μM, 30 min
Description: as §1, §2

[4] = test system: co-localization of Gβ with immunoprecipitated Gα; assay: Western blot / Co-IP of free Gβ and Gα-associated Gβ in normal HASM cells; assay type: cell-based, human; conditions: 1 μM, 30 min
Description: as §1, §2

[5] = test system: phosphorylated c-Src (p-Src); assay: Immunoblot of phosphorylated c-Src (Tyr416) in asthmatic HASM cells; assay type: cell-based, human
Description: as §3

[6] = test system: phosphorylated ERK1/2 (p-ERK1/2); assay: Immunoblot of phosphorylated ERK1/2 in asthmatic HASM cells; assay type: cell-based, human; conditions: 1 μM × 30 min
Description: as §3

[7] = test system: co-localization of ERK1/2 with PDE4D; assay: Co-IP of PDE4D with immunoprecipitated ERK1/2 in asthmatic HASM cells; assay type: cell-based, human; conditions: within 30 min
Description: Normal and asthmatic HASM cells were prepared for co-immunoprecipitation (Co-IP) studies, performed as previously described, under native conditions in order to preserve protein-protein associations. After indicated treatments, cells were harvested and then exposed to lysis buffer. 1.5 mg of Protein G Dynabeads (Invitrogen; Carlsbad, Calif.) were incubated with 10 μg of anti-Gβ rabbit IgG (Millipore) or anti-Gα (pan) rabbit polyclonal antibody (Millipore; Billerica, Mass.) and incubated for 10 min at room temperature with rotation. Following several washes, the bound bead/antibody complex was added to sample, mixed by pipetting, and incubated for 2 hr at 4° C. with rotation. The captured bead/Protein G/antigen complex was then washed several times and eluted at pH 3.0 with rotation at room temperature. The precipitated immunocomplexes were subsequently analyzed by immunoblotting using either anti-Gβ, anti-phospho-c-Src^Tyr416, anti-ERK1/2, or anti-PDE4D rabbit polyclonal antibody, or anti-Rap1GAP rabbit monoclonal IgG antibody (Millipore; Billerica, Mass.).

allergic rabbits = conditions: previous study (18); cited from earlier work
[8] = test system: PDE activity detected in cultured asthmatic HASM cells; conditions: recent report [27]; cited from earlier work
[9] = test system: PDE activity evoked in cultured normal HASM cells; conditions: sensitized under various proasthmatic conditions; [16-18]; cited from earlier work
[10] = test system: isolated rabbit ASM tissues; conditions: sensitized under various proasthmatic conditions; [16-18]; cited from earlier work
asthmatic individuals = conditions: cited from earlier work

For “IL-13: pro-asthmatic Th2 cytokine used as stimulus”, the “effect on co-localization of p-Src with immunoprecipitated Gβ” value ([1]; relative to unstimulated cells) was “increased co-localization; also recorded: enhanced co-localization” and the “time of peak of evoked increase in free Gβ levels” value (free Gβ protein levels) was 60 to 90 min.
For `Oc1ccc(-c2nc(-c3ccncc3)c(-c3ccc(F)cc3)[nH]2)cc1` [SB202190], the “effect on heightened basal PDE activity” value ([2]; 10 μM) was “no significant effect”.
In the case of `O=C1OC2(c3ccccc31)c1ccc(O)c(O)c1Oc1c2ccc(O)c1O` [gallein], the “time at which PDE activity is suppressed to normal levels” value ([2]; 1 μM) is reported as 0.25 h, the “effect on constitutively increased PDE activity in asthmatic HASM cells” value ([2]; 1 μM (maximally effective concentration), acute effect) is reported as “similarly acutely suppressed” and the “duration of suppression of PDE activity” value ([2]; 1 μM, followed up to 24 hr) is reported as “transient in nature”. For the same compound, the “effect on Gβ distribution (increased free Gβ, reduced Gα-associated Gβ)” value [3] was “acutely reversed”, the “effect on Gβ distribution” value [4] was “neither inhibitor had an effect” and the “effect on constitutively increased p-Src levels” value ([5]; 1 μM × 30 min) was “acutely suppressed”. The “effect on constitutively increased p-ERK1/2 levels” value [6] was “acutely suppressed”, the “effect of pretreatment on IL-13-induced co-localization of p-Src with immunoprecipitated Gβ” value [1] was “abrogated” and the “effect on heightened co-localization of ERK1/2 with PDE4D” value [7] was “acutely reversed”. The “effect of pretreatment on in vivo AHR elicited by allergen challenge” value (allergic rabbits) was “only suppressed AHR” and the “effect of pretreatment on pulmonary inflammation elicited by allergen challenge” value (allergic rabbits) was “no appreciable inhibitory effect”.
With `N#CC(=C(/N)Sc1ccccc1N)/C(C#N)=C(\N)Sc1ccccc1N` [U0126] the “effect on heightened basal PDE activity” value ([2]; 5 μM) was “acutely reversed to near normal levels; also recorded: acutely suppressed the elevated PDE activity in asthmatic HASM cells to near normal levels”.
In the case of `COc1ccc([C@]2(C#N)CC[C@@H](C(=O)O)CC2)cc1OC1CCCC1` [cilomilast], the “effect on increased PDE activity in cultured asthmatic HASM cells” value [8] is listed as “inhibited”.
In the case of `O=S(=O)(NCCNC/C=C/c1ccc(Br)cc1)c1cccc2cnccc12` [H89], the “effect on heightened basal PDE activity” value ([2]; 10 μM) is reported as “no significant effect”.
In the case of `COc1ccc(C2CNC(=O)C2)cc1OC1CCCC1` (centres unmarked) [rolipram], the “effect on heightened constitutive PDE activity” value ([2]; 10 μM × 1 hr, data not shown) is listed as “completely abrogated”, the “effect on increased PDE activity evoked in cultured normal HASM cells” value [9] is listed as “inhibits” and the “effect on increased PDE activity evoked in isolated rabbit ASM tissues” value [10] is listed as “inhibits”.
For `O=c1cc(N2CCOCC2)oc2c(-c3ccccc3)cccc12` [LY294002], the “effect on heightened basal PDE activity” value ([2]; 10 μM) was “no significant effect”.
In the case of `CN(C)S(=O)(=O)c1ccc2c(c1)/C(=C/c1cc3c([nH]1)CCCC3)C(=O)N2` [SU6656], the “effect on heightened basal PDE activity” value ([2]; 10 μM) is reported as “suppressed to near normal levels; also recorded: acutely reversed to near normal levels” and the “effect on constitutively increased p-Src levels” value ([5]; SU6656 10 μM) is reported as “suppressive effect”.
In the case of `O=C(Nc1c(Cl)cncc1Cl)c1ccc(OC(F)F)c(OCC2CC2)c1` [roflumilast], the “effect on airway hyperresponsiveness following allergen challenge” value (asthmatic individuals; [19,21]) is given as “decreases airway hyperresponsiveness”, the “effect on lung function” value (asthmatic individuals; [20]) is given as “improves lung function” and the “effect on increased PDE activity in cultured asthmatic HASM cells” value [8] is given as “inhibited”.
